Entries after “also recorded” stand apart in the source; their conditions may differ. No end group written: not given here.
Experiments:
[1] = test system: T84 cells; test: DNA synthesis ([methyl-3H]thymidine incorporation), tumor cell proliferation; assay type: cell-based, human; settings: for Effect of agent on inhibition of proliferation induced by ST: with ST, 1 μM KT5823, 50 μM RP8pCPT-cGMP, 0.5 μM KT5720, 50 μM RP-cAMPs, 10 μM milrinone, 200 μM L-DLT, 20 μM BAPTA, 50 μM DTR, 1 μM PHE, 100 nM CTX
Experimental: T84 (passages 50-70) and SW480 (passage 100-120) human colon carcinoma cells, obtained from the American Type Culture Collection, were maintained at 37° C. (5% CO2) in DMEM/F12 containing 2.5 mM L-glutamine, 100 units/ml penicillin, 100 μg/ml streptomycin, and 10% (vol/vol) FBS.
Exponentially growing cancer cells (˜60% confluent in 96-well plates) were synchronized by serum starvation in Eagle's minimal essential medium (EMEM) for 48 h, followed by proliferative induction with 10 mM L-glutamine (in EMEM) for 24 h. ST and other agents were added to cells 15 min before 0.2 μCi per well (1 Ci=37 GBq) of [methyl-3H]thymidine, which was added for 3 h, followed by quantification of [3H]thymidine incorporation into DNA (15).

[2] = test system: human T84 colon cancer cells; test: Perforated whole-cell patch-clamp current measurements; assay type: cell-based; settings: for Induction of L-DLT-sensitive membrane current: 500 nM ST, 2.5 mM 8-br-cGMP
Experimental: The perforated mode of the whole-cell patch-clamp recording was applied to human T84 colon cancer cells. Membrane potential was controlled through the electrical access obtained by membrane perforation induced by amphotericin B (9, 10). The pipette solution supplemented by amphotericin B ([…]) contained: 140 mM KCl, 1 mM MgCl2, 5 mM EGTA, and 20 mM Hepes-KOH (pH 7.3). The bath solution contained (in mM): 136.5 mM NaCl, 5.4 mM KCl, 1.8 mM CaCl2, 0.5 mM MgCl2, 5.5 mM glucose, and 5 mM Hepes-NaOH (pH 7.4). Voltage-clamp recordings were performed with an Axopatch 1-C patch-clamp amplifier (Axon Instruments, Foster City, Calif.) at 31±1° C. using an HCC-100 temperature controller (Dagan Instruments, Minneapolis; ref. 19).

[3] = test system: T84 cells; test: 45Ca2+ transport (calcium influx); assay type: cell-based, human; settings: ST 1 μM, 20 min; 8-br-cGMP 5 mM, 40 min
Experimental: Exponentially growing T84 cells (40-80% confluent in 24-well plates) were incubated in media (S-MEM, Life Technologies, Rockville, Md.) containing low (300 μM) CaCl2 to maximize the signal-to-noise ratio for L-cis-diltiazem (L-DLT)-sensitive 45Ca2+ transport determinations. Cells were treated with ST, 8-br-cGMP, and/or L-DLT for the indicated times, followed by the addition of 1 μCi per well 45Ca2+ for the last 15 min. Incubations were terminated by washing four times in cold PBS buffer (145 mM NaCl/5 mM KCl/1 mM MgCl2/10 mM glucose/5 mM Hepes, pH 7.4) containing 0.1 mM EGTA, cells were solubilized with cold NaOH (0.1 M), and radioactivity was quantified in 100-μl aliquots.

[4] = test system: human T84 colon cancer cells; test: Perforated whole-cell patch-clamp current measurements; assay type: cell-based; settings: Ca-free solution, n=5
[5] = molecular target: cAMP-dependent protein kinase I and II; settings: refs. 50 and 51; cited from earlier work
[6] = molecular target: PKG-I and -II; settings: cited from earlier work
[7] = test system: matrix metalloproteinase 9 release from human colorectal cancer cells; test: Release of matrix metalloproteinase 9 (MMP 9 activity, western blot); assay type: cell-based; settings: ST 1 micromolar
Source text: Preventing the secretion of this digestive enzyme will inhibit the ability of these tumor cells to invade the wall of the intestine. […] ST did this at a concentration of 1 micromolar.

[8] = test system: human colorectal cancer cells; test: Actin cytoskeleton organization (confocal microscopy, cell spreading); assay type: cell-based; settings: ST 1 micromolar, confocal microscopy
Source text: ST prevented human colorectal cancer cells from organizing their actin cytoskeleton. […] The latter is a functional readout of the ability of cells to organize actin. Human colorectal cancer cells treated with ST cannot spread their bodies out in vitro. An inability to organize their actin cytoskeletons will prevent these cells from being able to migrate through tissues to metastasize.

[9] = test system: T84 human colon carcinoma cells; test: Inhibition of proliferation of cancer cells; assay type: cell-based; settings: after exposure
[10] = test system: Caco 2 human colon carcinoma cells; test: Inhibition of proliferation of cancer cells; assay type: cell-based; settings: after exposure

Compound: Nc1nc2c(nc(Br)n2[C@@H]2O[C@@H]3COP(=O)(O)O[C@H]3[C@H]2O)c(=O)[nH]1 [8-br-cGMP]
- Inhibition of cell proliferation / DNA synthesis by 8-br-cGMP ([1]; 8-br-cGMP 5 mM): inhibited tumor cell DNA synthesis; also recorded: inhibition of cell proliferation
- Induction of Ca2+-dependent K+ current (KCa), charybdotoxin-sensitive [2]: induced
- Reversal potential derived from the induced current-voltage relationship [2]: ~−70 mV
- Induction of L-DLT-sensitive membrane current [2]: induced an L-DLT-sensitive current
- Induction of L-DLT-sensitive membrane current ([2]; listed as 8-Br-cGMP): induces an L-DLT-sensitive current
- Induced current in the presence of [Ca2+]ext ([2]; control, 1.8 mM CaCl2, n=5): 0.21±0.04 nA
- Shift of the reversal potential ΔEm ([2]; ramp pulses, holding potential −40 mV, mean±SEM): −25.8±4.6 mV
- Influx of 45Ca2+ into colon cancer cells [3]: induced influx
- Induced current after removal of [Ca2+]ext [4]: 0.07±0.04 nA

Compound: CC(=O)OCOC(=O)CN(CC(=O)OCOC(C)=O)c1ccccc1OCCOc1ccccc1N(CC(=O)OCOC(C)=O)CC(=O)OCOC(C)=O [BAPTA-AM]
- Effect of agent on inhibition of proliferation induced by ST [1]: reversal; also recorded: abolished

Compound: O=C1CN(/N=C/c2ccc(-c3ccc([N+](=O)[O-])cc3)o2)C(O)=N1 [Dantrolene]
- Effect of agent on inhibition of proliferation induced by ST [1]: did not reverse
- Effect of agent on inhibition of proliferation induced by ST ([1]; listed as dantrolene): did not affect

Compound: C[C@H](CCC(=O)O)C[C@H](C)C[C@H](C)C(=O)/C=C(\O)[C@H](C)C[C@H](C)C/C=C/[C@@H](C)[C@@H](O)[C@@H](C)[C@@H](O)C[C@@H]1CC[C@@](C)([C@H]2CC[C@@](C)([C@@H](C)O)O2)O1 [Ionomycin]
- Effect on cell proliferation of agent on its own compared with ST ([1]; ionomycin 1 μM, ST 1 μM): mimicked

Compound: CCCCCCOC(=O)[C@]1(O)C[C@@H]2O[C@@]1(C)n1c3ccccc3c3c4c(c5c6ccccc6n2c5c31)C(=O)NC4 [KT5720]
- Effect of agent on inhibition of proliferation induced by ST [1]: did not alter
- Ki [5]: 0.056 µM

Compound: COC(=O)[C@@]1(OC)C[C@H]2O[C@]1(C)n1c3ccccc3c3c4c(c5c6ccccc6n2c5c31)C(=O)N(C)C4 [KT5823]
- Effect of agent on inhibition of proliferation induced by ST [1]: did not alter
- Ki [6]: 0.234 µM

Compound: Nc1nc2c(nc(Sc3ccc(Cl)cc3)n2C2OC3COP(O)(=S)OC3C2O)c(=O)[nH]1 (centres unmarked) [RP8pCPT-cGMP]
- Effect of agent on inhibition of proliferation induced by ST [1]: did not alter
- Ki [6]: 0.5 µM

Compound: Nc1ncnc2c1ncn2[C@@H]1O[C@@H]2CO[P@@](O)(=S)O[C@H]2[C@H]1O [RP-cAMPs]
- Effect of agent on inhibition of proliferation induced by ST [1]: did not alter
- Ki [5]: 10 µM

Compound: Nc1nc2c(ncn2[C@@H]2O[C@@H]3COP(=O)(O)O[C@H]3[C@H]2O)c(=O)[nH]1 [cyclic GMP]
- Release of matrix metalloproteinase 9 [7]: precisely mimicked
- Organization of actin cytoskeleton [8]: prevented this organization

Compound: Cc1[nH]c(=O)c(C#N)cc1-c1ccncc1 [milrinone]
- Effect of agent on inhibition of proliferation induced by ST [1]: did not alter

Compound: NC(=Nc1ccccc1)NC(=O)c1nc(Cl)c(N)nc1N [phenamil]
- Effect of agent on inhibition of proliferation induced by ST [1]: did not affect; also recorded: did not reverse

Compound: charybdotoxin (QFTNVSCTTSKECWSVCQRLHNTSRGKCMNKKCRCYS)
- Effect of agent on inhibition of proliferation induced by ST [1]: absence of charybdotoxin effect
- Effect of agent on inhibition of proliferation induced by ST ([1]; listed as CTX): did not reverse

Compound: uroguanylin: homologous ST receptor binding peptide produced locally in the intestine (NDDCELCVNVACTGCL; ends and bridges not checked; cysteine pairing not given here; UniProt Q16661 97-112, looked up)
- Inhibition of proliferation of cancer cells [9]: inhibit the proliferation
- Inhibition of proliferation of cancer cells [10]: inhibit the proliferation

Reference: patent US8206704B2, “Use of GCC ligands” (priority 2003, dated 2012)
